Results taken from paper PMC10290043, “Pharmacokinetics, safety, and antitumor activity of talazoparib monotherapy in Chinese patients with advanced solid tumors” (Investigational New Drugs, 2023).
Entries after “also recorded” stand apart in the source; their conditions may differ.

What was measured:
[1] = Safety: treatment-emergent adverse events, NCT04635631; assay type: in vivo, human; settings: for Any AE: safety population N=15, 1 mg QD
From the text: AE reporting included data up to 28 days after last dose of study drug or to start of new anticancer drug therapy Day -1 (whichever came first). For AEs, Medical Dictionary for Regulatory Activities (MedDRA), version 24.0, coding was applied.
All patients who had received at least 1 dose of talazoparib were included in the safety and efficacy analysis sets. All treated patients with at least 1 PK concentration in the single-dose and/or multiple-dose PK part were included in the PK concentration analysis set, and all treated patients with at least 1 of the PK parameters of primary interest in the single-dose and/or multiple-dose PK part were included in the PK parameter analysis set. All patients in the PK parameter analysis set who completed both the single-dose PK and multiple-dose PK parts without major protocol deviations were included in the PK evaluable analysis set.

[2] = tested on: solid tumors; set-up: method as in PMID 34160752; settings: molecularly unselected Japanese patients with solid tumors; cited from earlier work
[3] = set-up: method as in PMID 35907135; settings: 19 Japanese patients with germline BRCA-mutated advanced breast cancer; cited from earlier work

In the case of Cn1ncnc1[C@H]1c2n[nH]c(=O)c3cc(F)cc(c23)N[C@@H]1c1ccc(F)cc1 [talazoparib], the “Patients with 1 or more dose reduction due to treatment-related AEs” value ([1]; 3/15 patients) was “Twenty percent”, the “Any-grade treatment-related TEAE: anemia” value ([1]; N=15) was 46.7% and the “Any-grade treatment-related TEAE: decreased lymphocyte count” value ([1]; N=15) was 33.3%. The “Any-grade treatment-related TEAE: decreased neutrophil count” value ([1]; N=15) was 46.7%, the “Any-grade treatment-related TEAE: decreased platelet count” value ([1]; N=15) was 33.3% and the “Any-grade treatment-related TEAE: decreased white blood cell count” value ([1]; N=15) was 46.7%. For the same molecule, the “Any-grade treatment-related TEAE: elevated alanine aminotransferase” value ([1]; N=15) was 33.3%, the “Any-grade treatment-related TEAE: elevated aspartate aminotransferase” value ([1]; N=15) was 33.3% and the “Patients permanently discontinued because of treatment-related decreased neutrophil count” value ([1]; N=15) was 6.7%. For the same molecule, the “Patients with dose interruptions due to all-causality AEs” value ([1]; N=15) was 20.0%, the “Patients with dose interruptions due to treatment-related AEs” value ([1]; N=15) was 13.3% and the “Patients with grade 3 treatment-related TEAEs” value ([1]; N=15) was 20%. The “Patients with grade 4 treatment-related TEAEs” value ([1]; N=15) was 13.3%, the “Patients with serious all-causality TEAEs” value ([1]; N=15) was 13.3% and the “Patients with serious treatment-related TEAEs” value ([1]; N=15) was 13.3%. For the same molecule, the “Treatment-related grade 3 or 4 TEAE: decreased neutrophil count” value ([1]; N=15) was 20%, the “Treatment-related grade 3 or 4 TEAE: decreased platelet count” value ([1]; N=15) was 20% and the “Patients with grade 3–4 treatment-related AEs” value ([1]; N=15, in words) was “One-third”. The “Treatment-related grade 3 or 4 TEAE: anemia” value ([1]; N=15, no grade 4) was 20%, the “Treatment-related grade 3 or 4 TEAE: hyponatremia” value ([1]; N=15, no grade 4) was 6.7% and the “Treatment-related grade 3 or 4 TEAE: neutropenia” value ([1]; N=15, no grade 4) was 6.7%. For the same molecule, the “Grade 5 TEAEs” value ([1]; all-causality or treatment-related, N=15) was “No grade 5 all-causality or treatment-related TEAEs; also recorded: no grade 5 TEAEs”, the “AEs leading to discontinuation” value ([1]; all-causality, N=15) was 1 (6.7) n (%) and the “AEs leading to dose interruption” value ([1]; all-causality, N=15) was 3 (20.0) n (%). For the same molecule, the “AEs leading to dose reduction” value ([1]; all-causality, N=15) was 3 (20.0) n (%), the “Grade 3 or 4 AE” value ([1]; all-causality, N=15) was 9 (60.0) n (%) and the “Grade 3 or 4 AE: Anemia” value ([1]; all-causality, N=15) was 3 (20.0) n (%). The “Grade 3 or 4 AE: Gamma-glutamyltransferase increased” value ([1]; all-causality, N=15) was 4 (26.7%) n (%), the “Grade 3 or 4 AE: Neutrophil count decreased” value ([1]; all-causality, N=15) was 3 (20.0) n (%) and the “Grade 3 or 4 AE: Platelet count decreased” value ([1]; all-causality, N=15) was 3 (20.0) n (%). For the same molecule, the “Grade 5 AE (Death due to AE)” value ([1]; all-causality, N=15) was 0 n (%), the “Patients with any SAE” value ([1]; all-causality, N=15) was 2 (13.3) n (%) and the “SAE: Anemia” value ([1]; all-causality, N=15) was 1 (6.7) n (%). For the same molecule, the “SAE: Hypernatremia” value ([1]; all-causality, N=15) was 1 (6.7) n (%), the “SAE: Hyponatremia” value ([1]; all-causality, N=15) was 1 (6.7) n (%) and the “SAE: Neutrophil count decreased” value ([1]; all-causality, N=15) was 1 (6.7) n (%). The “SAE: Platelet count decreased” value ([1]; all-causality, N=15) was 1 (6.7) n (%), the “Any AE” value ([1]; all-causality) was 14 (93.3) n (%) and the “Patients with all-causality TEAEs” value ([1]; safety population N=15) was 93.3%. The “Patients with treatment-related TEAEs” value ([1]; safety population N=15) was 86.7%, the “AEs leading to discontinuation” value ([1]; treatment-related, N=15) was 1 (6.7) n (%) and the “AEs leading to dose interruption” value ([1]; treatment-related, N=15) was 2 (13.3) n (%). For the same molecule, the “AEs leading to dose reduction” value ([1]; treatment-related, N=15) was 3 (20.0) n (%), the “Grade 3 or 4 AE” value ([1]; treatment-related, N=15) was 5 (33.3) n (%) and the “Grade 3 or 4 AE: Anemia” value ([1]; treatment-related, N=15) was 3 (20.0) n (%). The “Grade 3 or 4 AE: Gamma-glutamyltransferase increased” value ([1]; treatment-related, N=15) was 0 n (%), the “Grade 3 or 4 AE: Neutrophil count decreased” value ([1]; treatment-related, N=15) was 3 (20.0) n (%) and the “Grade 3 or 4 AE: Platelet count decreased” value ([1]; treatment-related, N=15) was 3 (20.0) n (%). The “Grade 5 AE (Death due to AE)” value ([1]; treatment-related, N=15) was 0 n (%), the “Patients with any SAE” value ([1]; treatment-related, N=15) was 2 (13.3) n (%) and the “SAE: Anemia” value ([1]; treatment-related, N=15) was 1 (6.7) n (%). For the same molecule, the “SAE: Hypernatremia” value ([1]; treatment-related, N=15) was 0 n (%), the “SAE: Hyponatremia” value ([1]; treatment-related, N=15) was 1 (6.7) n (%) and the “SAE: Neutrophil count decreased” value ([1]; treatment-related, N=15) was 1 (6.7) n (%). The “SAE: Platelet count decreased” value ([1]; treatment-related, N=15) was 1 (6.7) n (%), the “Any AE” value ([1]; treatment-related) was 13 (86.7) n (%) and the “Overall disease control rate” value [2] was 44.4%. The “Geometric mean Ctrough (steady-state trough concentrations)” value [3] was 3.346 ng/mL.
